Assay results taken from the NIST ThermoML archive (doi:10.1021/je400184t).
Where “and” joins values, the source holds several entries; their conditions need not be identical. Identical values can stand only once. Numbers after ± are expanded uncertainties.

Key:
[1] = 101 kPa, Liquid, Vibrating tube method
[2] = xn = mol fraction of the nth substance listed; conditions: 101 kPa, Liquid, Vibrating tube method, x1 = 1

SMILES	mass density ([1]; 288.15 K)	mass density ([1]; 298.15 K)	mass density ([1]; 353.15 K)	mass density ([2]; 298.15 K) [kg/m3]	mass density ([2]; 288.15 K) [kg/m3]	mass density ([2]; 353.15 K) [kg/m3]
NCCO [2-aminoethan-1-ol]	1019.87 ± 0.2 kg/m3	1012.12 ± 0.2 kg/m3	968.332 ± 0.2 kg/m3	–	–	–
CN(CCO)CCO [N-methyldiethanolamine]	1046.36 ± 0.21 kg/m3	1036.81 ± 0.21 kg/m3	994.015 ± 0.2 kg/m3	–	–	–
CCCCCCC [heptane]	–	679.537 ± 0.26 kg/m3	–	–	–	–
CCCCCCC [heptane] + Cc1ccccc1	–	–	–	679.537 ± 0.26	–	–
c1ccncc1 [pyridine]	988.041 ± 0.2 kg/m3 and 988.343 ± 0.2 kg/m3	978.145 ± 0.2 kg/m3 and 978.086 ± 0.2 kg/m3	921.953 ± 0.21 kg/m3 and 921.952 ± 0.21 kg/m3	–	–	–
c1ccncc1 [pyridine] + CN(CCO)CCO	–	–	–	978.086 ± 0.2	988.343 ± 0.2	921.952 ± 0.21
c1ccncc1 [pyridine] + NCCO	–	–	–	978.145 ± 0.2	988.041 ± 0.2	921.953 ± 0.21
Cc1ccccc1 [toluene]	–	862.222 ± 0.21 kg/m3	–	–	–	–
